Values joined by “and” are separate entries in the source; they are usually repeats but may differ in a detail not shown here. Equal entries are not always repeated. “Also recorded” adds a separate entry of the source.
How the values were obtained:
[1] = system: patients treated with atorvastatin; details: cited from earlier work
[2] = system: cisplatin-induced hearing loss in patients with head and neck cancer
From the text: (§1) The primary outcome measure was the difference in incidence of a change in hearing between the baseline hearing test and the post-treatment hearing test, per ear, as defined by established ototoxicity grading scales. These scales report subjects who transition from normal hearing to hearing loss as well as those who transition from some hearing loss to more hearing loss. The criteria of two different grading scales was applied to the dataset (Table 4). The NCI CTCAEv5.0(34) classifies adverse changes in hearing based on auditory threshold shifts across a 1-8 KHz frequency range. TUNE ototoxicity grading criteria (Theunissen et al., 2014), which incorporate extended high frequency (EHF) data was also applied (see Table 5, FIG. 5).
(§2) The primary outcome measure was based on changes in hearing as defined by CTCAEv5.0 scale criteria (see Table 4) and were analyzed using categorical incidence (per ear) data. The incidence and severity distribution of a clinically meaningful hearing change, per ear, relative to statin use was analyzed using chi-square analyses (SAS PROC FREQ procedure). […] A logistic regression analysis (SAS PROC LOGISTIC procedure) with calculation of odds ratios and 95% confidence intervals was performed to identify associations between CTCAE-defined changes in hearing and statin use after adjustment for significant covariates.

[3] = system: cisplatin-induced hearing loss in patients with head and neck cancer; remark: listed apart in the source
From the text: as §1
Changes in hearing were primarily defined using CTCAEv5.0 criteria (Theunissen et al., 2014). However, cisplatin-induced ototoxicity is characterized initially as a high frequency (above 8 kHz) hearing loss that can spread to include lower frequencies (Brock et al., 1991). Therefore, the TUNE grading scale (Theunissen et al., 2014) was applied, which reports incidence and severity of hearing loss based on shifts in auditory thresholds across two frequency ranges: 1-4 kHz and 8-12.5 kHz (Table 4). The higher-frequency range of the TUNE scale was modified to include 6, 8 and 12.5 kHz due to insufficient data at 10 kHz in the dataset. Because many of the subjects had some hearing loss at baseline, the TUNE criteria was further modified so that Grades 3 and 4 utilized threshold shift data instead of absolute thresholds. A TUNE Grade 3 was redefined for this study as a ≥35 dB PTA threshold shift from the baseline to the post-treatment audiogram, and similarly Grade 4 was redefined as a ≥50 dB PTA threshold shift.
as §2, with “Changes” for “The primary outcome measure was based on changes”, “hearing,” for “hearing as”, “TUNE criteria,” for “CTCAEv5.0 scale criteria (see Table 4) and”, “TUNE-defined” for “CTCAE-defined”

patients with HNSCC = test: 3-year overall and disease-free survival (Kaplan-Meier, log-rank); type: in vivo, human; details: URMC data n=175; log-rank (Mantel-Cox)
Method: Overall survival and disease-free survival were calculated as Kaplan-Meier curves using Prism v8 software on all available data from URMC at up to 3 years post treatment (N=175). Survival curves were compared using the log-rank (Mantel-Cox) test. Cochlear radiation dose data presented in FIG. 6 were analyzed using Pearson R and Spearman R correlation analysis within Prism v8.
Overall survival at 3 years was approximately 80% (FIG. 4). An exact median survival time could not be calculated due to the number of patients censored/lost to follow-up.

[4] = system: cisplatin-induced hearing loss in patients with head and neck cancer; test: Clinical hearing status (PTA of 1, 2 and 4 kHz) at follow-up after cisplatin therapy; type: in vivo, human
[5] = system: spiral ganglion neurons (SGN); details: mouse model of noise-induced hearing loss; cited from earlier work
[6] = system: cisplatin-induced hearing loss in patients with head and neck cancer; details: in vivo
[7] = cited from earlier work; for hepatoselectivity: compared with lipophilic agents
[8] = Schachter et al., 2005; cited from earlier work
[9] = system: cisplatin-induced hearing loss in mice; details: cyclic administration of cisplatin; ABR testing; cited from earlier work
[10] = system: heme oxygenase-1 (Hmox-1); details: mice; cited from earlier work
[11] = system: cytochrome P(450) enzymes; details: Schachter et al., 2005; cited from earlier work
[12] = system: low-density lipoprotein cholesterol; details: clinical studies, comparison among statins; cited from earlier work
[13] = controlled for cumulative cisplatin dose and baseline hearing
[14] = package insert, rate greater than placebo

CC(C)c1c(C(=O)Nc2ccccc2)c(-c2ccccc2)c(-c2ccc(F)cc2)n1CC[C@@H](O)C[C@@H](O)CC(=O)[O-].CC(C)c1c(C(=O)Nc2ccccc2)c(-c2ccccc2)c(-c2ccc(F)cc2)n1CC[C@@H](O)C[C@@H](O)CC(=O)[O-].[Ca+2] [atorvastatin calcium]
incidence of persistent serum transaminase elevations, 10 mg ([1]; human, in vivo): 0.2%
incidence of persistent serum transaminase elevations, 20 mg ([1]; human, in vivo): 0.2%
incidence of persistent serum transaminase elevations, 40 mg ([1]; human, in vivo): 0.6%
incidence of persistent serum transaminase elevations, 80 mg ([1]; human, in vivo): 2.3%
patients with persistent elevations (>3 times ULN on 2 or more occasions) in serum transaminases ([1]; human, in vivo): 0.7%

CC(C)c1c(C(=O)Nc2ccccc2)c(-c2ccccc2)c(-c2ccc(F)cc2)n1CC[C@@H](O)C[C@@H](O)CC(=O)O [atorvastatin]
hearing loss, CTCAEv5.0 Grade ≥2 criteria, retrospective data used for power analysis ([2]; atorvastatin (20 mg) group as worded): ~16.7%
less likely to acquire a CTCAE-defined cisplatin-induced hearing loss than a non-statin user [2, 13]: 53%
less likely to develop a cisplatin-related hearing loss, once daily atorvastatin vs not on atorvastatin ([2]; observational data): 45%
OR for cisplatin-related hearing loss, once daily atorvastatin vs not on atorvastatin ([2]; observational data, 95% CI: 0.327-0.942): 0.55
incidence of a CTCAEv5.0-grade hearing loss, patients ([2]; per patient, in at least one ear): 46%
incidence of CTCAE grade ≥2 hearing change ([2]; percentage of ears): 9.7%
incidence of CTCAE Grade 1 or higher hearing loss ([2]; percentage of ears, full cohort): 31.2% and 31%
incidence of CTCAE-defined hearing loss, chemoradiation therapy ([2]; subgroup, % of ears): 31.2%
incidence of CTCAE-defined hearing loss, higher cumulative cisplatin doses (>200 mg/m^2) ([2]; subgroup, % of ears): 31.7%
incidence of CTCAE-defined hearing loss, males ([2]; subgroup, % of ears): 30.4%
incidence of CTCAE-defined hearing loss, mild hearing loss at baseline ([2]; subgroup, % of ears): 26.8%
less likely to acquire a TUNE-defined cisplatin-induced hearing loss than a non-statin user [3, 13]: 56%
incidence of TUNE grade 2 or higher change in hearing ([3]; in vivo): 14.4%
incidence of TUNE Grade 1 or higher hearing loss ([3]; percent of ears): 34%
3-year disease-free survival compared with non-statin users (patients with HNSCC): no significant differences
3-year overall survival compared with non-statin users (patients with HNSCC): did not have a significant effect on patient survival; also recorded: no significant differences
hearing status at follow-up: Mild (PTA >20, <40), number of ears ([4]; post-cisplatin therapy): 49 No. Ears
hearing status at follow-up: Mild (PTA >20, <40), percent of ears ([4]; post-cisplatin therapy): (50.52) %
hearing status at follow-up: Moderate (PTA ≥40, ≤70), number of ears ([4]; post-cisplatin therapy): 21 No. Ears
hearing status at follow-up: Moderate (PTA ≥40, ≤70), percent of ears ([4]; post-cisplatin therapy): (21.65) %
hearing status at follow-up: Normal (PTA ≤20), number of ears ([4]; post-cisplatin therapy): 26 No. Ears
hearing status at follow-up: Normal (PTA ≤20), percent of ears ([4]; post-cisplatin therapy): (26.80) %
hearing status at follow-up: Profound (PTA ≥95), number of ears ([4]; post-cisplatin therapy): 3 No. Ears
hearing status at follow-up: Profound (PTA ≥95), percent of ears ([4]; post-cisplatin therapy): (3.00) %
hearing status at follow-up: Severe (PTA >70, <95), number of ears ([4]; post-cisplatin therapy): 1 No. Ears
hearing status at follow-up: Severe (PTA >70, <95), percent of ears ([4]; post-cisplatin therapy): (1.03) %
elongation of SGN processes [5]: promoted the elongation of SGN processes
safety and tolerability of the 20 mg dose ([1]; 20 mg once daily, adults, literature, listed as Atorvastatin): very low incidence of adverse effects
Food and Drug Administration pregnancy classification ([1]; human, in vivo): Category X
alanine aminotransferase increase leading to treatment discontinuation [1, 14]: 0.4%
diarrhea leading to treatment discontinuation [1, 14]: 0.5%
hepatic enzyme increase leading to treatment discontinuation [1, 14]: 0.4%
myalgia leading to treatment discontinuation [1, 14]: 0.7%
nausea leading to treatment discontinuation [1, 14]: 0.4%

N.N.[Cl][Pt][Cl] [cisplatin]
individuals with clinically meaningful hearing loss after cisplatin therapy, TUNE criteria ([3]; in vivo): up to 53%
high-frequency threshold shift after cisplatin therapy [6]: 13.7 dB

CC(C)n1c(/C=C/C(O)CC(O)CC(=O)O)c(-c2ccc(F)cc2)c2ccccc21 (stereo not drawn) [fluvastatin]
elimination half-life ([7]; Schachter et al., 2005): 1 h
lipophilicity [8]: relatively lipophilic

CC[C@H](C)C(=O)O[C@H]1C[C@@H](C)C=C2C=C[C@H](C)[C@H](CC[C@@H]3C[C@@H](O)CC(=O)O3)[C@H]21 [lovastatin]
hearing status at follow-up: Mild (PTA >20, <40), number of ears ([4]; post-cisplatin therapy): 4 No. Ears
hearing status at follow-up: Mild (PTA >20, <40), percent of ears ([4]; post-cisplatin therapy): (100.00) %
hearing status at follow-up: Moderate (PTA ≥40, ≤70), number of ears ([4]; post-cisplatin therapy): 0 No. Ears
hearing status at follow-up: Normal (PTA ≤20), number of ears ([4]; post-cisplatin therapy): 0 No. Ears
hearing status at follow-up: Profound (PTA ≥95), number of ears ([4]; post-cisplatin therapy): 0 No. Ears
hearing status at follow-up: Severe (PTA >70, <95), number of ears ([4]; post-cisplatin therapy): 0 No. Ears
lipophilicity [8]: relatively lipophilic
effect on cisplatin-induced hearing loss / ototoxicity in mice [9]: reduces cisplatin-induced hearing loss; also recorded: reduced cisplatin ototoxicity
Hmox-1 mRNA [10]: induced Hmox-1 mRNA
elongation of SGN processes [5]: promoted the elongation of SGN processes

O=C(O)C[C@H](O)C[C@H](O)/C=C/c1c(C2CC2)nc2ccccc2c1-c1ccc(F)cc1 [pitavastatin]
change of hearing status over cisplatin therapy, in words ([4]; n=2 subjects): started and ended therapy with a bilateral mild hearing loss
hearing status at follow-up: Mild (PTA >20, <40), number of ears ([4]; post-cisplatin therapy): 4 No. Ears
hearing status at follow-up: Mild (PTA >20, <40), percent of ears ([4]; post-cisplatin therapy): (100.00) %
hearing status at follow-up: Moderate (PTA ≥40, ≤70), number of ears ([4]; post-cisplatin therapy): 0 No. Ears
hearing status at follow-up: Normal (PTA ≤20), number of ears ([4]; post-cisplatin therapy): 0 No. Ears
hearing status at follow-up: Profound (PTA ≥95), number of ears ([4]; post-cisplatin therapy): 0 No. Ears
hearing status at follow-up: Severe (PTA >70, <95), number of ears ([4]; post-cisplatin therapy): 0 No. Ears
lipophilicity [8]: relatively lipophilic
metabolism by the cytochrome P(450) system [11]: limited metabolism

CC[C@H](C)C(=O)O[C@H]1C[C@H](O)C=C2C=C[C@H](C)[C@H](CC[C@@H](O)C[C@@H](O)CC(=O)O)[C@H]21 [pravastatin]
hearing status at follow-up: Mild (PTA >20, <40), number of ears ([4]; post-cisplatin therapy): 8 No. Ears
hearing status at follow-up: Mild (PTA >20, <40), percent of ears ([4]; post-cisplatin therapy): (33.33) %
hearing status at follow-up: Moderate (PTA ≥40, ≤70), number of ears ([4]; post-cisplatin therapy): 6 No. Ears
hearing status at follow-up: Moderate (PTA ≥40, ≤70), percent of ears ([4]; post-cisplatin therapy): (25.00) %
hearing status at follow-up: Normal (PTA ≤20), number of ears ([4]; post-cisplatin therapy): 9 No. Ears
hearing status at follow-up: Normal (PTA ≤20), percent of ears ([4]; post-cisplatin therapy): (37.50) %
hearing status at follow-up: Profound (PTA ≥95), number of ears ([4]; post-cisplatin therapy): 0 No. Ears
hearing status at follow-up: Severe (PTA >70, <95), number of ears ([4]; post-cisplatin therapy): 1 No. Ears
hearing status at follow-up: Severe (PTA >70, <95), percent of ears ([4]; post-cisplatin therapy): (4.17) %
hepatoselectivity ([7]; Schachter et al., 2005): greater hepatoselectivity
lipophilicity [8]: relatively hydrophilic
metabolism by the cytochrome P(450) system [11]: not significantly metabolized

CC(C)c1nc(N(C)S(C)(=O)=O)nc(-c2ccc(F)cc2)c1/C=C/[C@@H](O)C[C@@H](O)CC(=O)O [rosuvastatin]
hearing status at follow-up: Mild (PTA >20, <40), number of ears ([4]; post-cisplatin therapy): 14 No. Ears
hearing status at follow-up: Mild (PTA >20, <40), percent of ears ([4]; post-cisplatin therapy): (63.64) %
hearing status at follow-up: Moderate (PTA ≥40, ≤70), number of ears ([4]; post-cisplatin therapy): 6 No. Ears
hearing status at follow-up: Moderate (PTA ≥40, ≤70), percent of ears ([4]; post-cisplatin therapy): (27.27) %
hearing status at follow-up: Normal (PTA ≤20), number of ears ([4]; post-cisplatin therapy): 2 No. Ears
hearing status at follow-up: Normal (PTA ≤20), percent of ears ([4]; post-cisplatin therapy): (9.09) %
hearing status at follow-up: Profound (PTA ≥95), number of ears ([4]; post-cisplatin therapy): 0 No. Ears
hearing status at follow-up: Severe (PTA >70, <95), number of ears ([4]; post-cisplatin therapy): 0 No. Ears
hepatoselectivity ([7]; Schachter et al., 2005): greater hepatoselectivity
lipophilicity [8]: relatively hydrophilic
metabolism by the cytochrome P(450) system [11]: not significantly metabolized
effectiveness for reducing low-density lipoprotein cholesterol [12]: most effective

CCC(C)(C)C(=O)O[C@H]1C[C@@H](C)C=C2C=C[C@H](C)[C@H](CC[C@@H]3C[C@@H](O)CC(=O)O3)[C@H]21 [simvastatin]
half-life ([7]; Sirtori et al., 2014): 12 h

— patent US20240293361A1, “Use of Statins to Treat or Prevent Drug-Induced Hearing Loss” (The United States of America, as represented by the …, priority 2020, published 2024)
